Assay results from PMC8619920, “New Polyesterified Ursane Derivatives from Leaves of Maesa membranacea and Their Cytotoxic Activity” (Molecules, 2021).

Legend:
[1] = Cytotoxicity, LDH assay, PNT-2 cells; assay type: cell-based, human; details: human, 24 h, mean ± SD of three, read-out: Cell viability PNT-2
Protocol: (§1) Cytotoxic activity was tested on human cancer and normal cells, grouped in three panels, namely: prostate, skin and gastrointestinal. The prostate panel consisted of prostate cancer cell lines Du145 (ATCC HTB-81) and PC3 (ATCC CRL-1435), and prostate epithelial cells PNT-2 (ECACC 95012613). Melanoma cell lines A375 (ATCC CRL-1619) and HTB140 (ATCC Hs 294T) together with skin keratinocytes HaCaT (obtained as a kind gift of prof. Marta Michalik, Department of Cell Biology, Jagiellonian University, Kraków, Poland) were included into the skin panel. The gastrointestinal panel of cells comprised colon cancer cell lines Caco-2 (ATCC HTB-37) and HT29 (ATCC HTB-38). Du145 cells were grown in Modified Eagle’s Medium with low (1.0 g/L) glucose concentration, HT29, PC3 and PNT-2 cells in Dulbecco’s Modified Eagle’s Media: F12 HAM Nutrient Mixture, Caco-2 in Modified Eagle’s Medium with NEAA (no-essential amino acids) while melanoma cells and keratinocytes were maintained in Modified Eagle’s Medium with high (4.5 g/L) glucose concentration. The culture media (all supplied by Sigma-Aldrich Co.; St. Louis, MO, USA) contained antibiotics and 10% fetal bovine serum (FBS). All cultures were maintained at 37 °C, in a humidified, 5% CO2 containing, atmosphere.
(§2) The examined triterpenes were diluted in the culture media from freshly made stock solutions in MeOH (10 mg/mL) to the working concentrations (from 0 to 100 μg/mL).
(§3) Cell viability was determined as it was described previously. Cells suspended in the nutrient medium were transferred into 96-well microtiter plates (density 1.5 × 10^4 per well), and preincubated for 24 h (37 °C, 5% CO2). Then, the culture medium was replaced with the medium containing different concentrations of 1 or 2 (1–100 μg/mL). After 24 h of incubation, viability of the cells was determined using colorimetric lactate dehydrogenase (LDH) assay, in comparison to the controls to which corresponding aliquots of MeOH diluted with culture media were added. Cells grown in the medium without the tested compounds were used as control I (negative) and the positive control (control II) was obtained by incubation of the cells in the medium containing 1% Triton X-100. LDH released from the damaged cells into the cell culture medium was quantified by measuring the absorbance at 490 nm using Synergy II Biotek (BioTek Instruments, Winooski, VT, USA) microplate reader. Cytotoxicities of the examined compounds were calculated as follows: [(absorbance of the tested sample − absorbance of control I)/(absorbance of control II − absorbance of control I)] × 100. Results were means of three independent measurements (± SD). Doxorubicin (Ebewe Pharma GmbH., Unterach, Austria) was used as a reference cytostatic drug. The IC50 values were determined by plotting the percentage viability of the cells versus concentration and the adequate calculations made using AAT Bioquest website program (https://www.aatbio.com/tools/ic50-calculator, accessed on 29 October 2021).

[2] = tested on: PNT-2 human normal prostate epithelium cells; assay: Cytotoxicity, LDH assay, PNT-2 cells; assay type: cell-based
Protocol: as §1, §2, §3

[3] = Cytotoxicity, LDH assay, DU145 cells; assay type: cell-based, human; details: human, DU145 prostate carcinoma cells, 24 h, mean ± SD of three, read-out: Cell viability DU145
Protocol: as §1, §2, §3

[4] = tested on: DU145 human prostate carcinoma cells; assay: Cytotoxicity, LDH assay, DU145 cells; assay type: cell-based; details: 24 h treatment; for IC50: Homo sapiens, DU-145, 24 h
Protocol: as §1, §2, §3

[5] = tested on: PC3 human prostate adenocarcinoma cells; assay: Cytotoxicity, LDH assay, PC3 cells; assay type: cell-based; details: 24 h treatment; for IC50: Homo sapiens, PC-3, 24 h
Protocol: as §1, §2, §3

[6] = Cytotoxicity, LDH assay, HaCaT cells; assay type: cell-based, human; details: human, 24 h, mean ± SD of three, read-out: Cell viability HaCaT
Protocol: as §1, §2, §3

[7] = tested on: HaCaT human immortalized keratinocytes; assay: Cytotoxicity, LDH assay, HaCaT cells; assay type: cell-based; details: Homo sapiens, HaCaT; 24 h treatment, 5–100 μg/mL
Protocol: as §1, §2, §3

[8] = Cytotoxicity, LDH assay, A375 cells; assay type: cell-based, human; details: human, A375 malignant melanoma cells, 24 h, mean ± SD of three, read-out: Cell viability A375
Protocol: as §1, §2, §3

[9] = tested on: A375 human malignant melanoma cells; assay: Cytotoxicity, LDH assay, A375 cells; assay type: cell-based; details: Homo sapiens, A-375; 24 h treatment, 5–100 μg/mL
Protocol: as §1, §2, §3

[10] = Cytotoxicity, LDH assay, HTB140 cells; assay type: cell-based, human; details: human, HTB140 melanoma cells, 24 h, mean ± SD of three, read-out: Cell viability HTB140
Protocol: as §1, §2, §3

[11] = tested on: HTB140 human melanoma cells; assay: Cytotoxicity, LDH assay, HTB140 cells; assay type: cell-based; details: Homo sapiens; 24 h treatment, 5–100 μg/mL
Protocol: as §1, §2, §3

[12] = Cytotoxicity, LDH assay, HT29 cells; assay type: cell-based, human; details: human, HT29 colon adenocarcinoma cells, 24 h, mean ± SD of three, read-out: Cell viability HT29
Protocol: as §1, §2, §3

[13] = tested on: HT29 human colon adenocarcinoma cells; assay: Cytotoxicity, LDH assay, HT29 cells; assay type: cell-based; details: Homo sapiens, HT-29; 24 h treatment, 5–100 μg/mL
Protocol: as §1, §2, §3

For `CCC(C)C(=O)OC1C=C2C3C(C)C(C)(O)CC(OC(C)=O)C3(C)CCC2(C)C2(C)CC(OC(C)=O)C3C(C)(C)C(O)C(OC(C)=O)CC3(C)C12` (stereo not drawn) [Compound 1, 2α,6β,22α-triacetoxy-11α-(2-methylbutyryloxy)-urs-12-ene-3α,20β-diol], the viability at 24 h, 10 μg/mL ([1]; PNT-2 normal prostate epithelium cells, 10 μg/mL) was 96.77 ± 0.6%, the viability at 24 h, 100 μg/mL ([1]; PNT-2 normal prostate epithelium cells, 100 μg/mL) was 59 ± 2.2% and the viability at 24 h, 5 μg/mL ([1]; PNT-2 prostate epithelial cells, 5 μg/mL) was 96.61 ± 0.53%. For the same molecule, the viability at 24 h, 20 μg/mL ([1]; PNT-2 prostate epithelial cells, 20 μg/mL) was 94.59 ± 0.9%, the viability at 24 h, 30 μg/mL ([1]; PNT-2 prostate epithelial cells, 30 μg/mL) was 91 ± 1.07% and the viability at 24 h, 40 μg/mL ([1]; PNT-2 prostate epithelial cells, 40 μg/mL) was 83 ± 1.41%. The viability at 24 h, 50 μg/mL ([1]; PNT-2 prostate epithelial cells, 50 μg/mL) was 70.7 ± 2.58%, the “Reduction of viability of PNT-2 cells” value ([2]; 100 µg/mL) was 41% and the IC50 ([2]; Homo sapiens, PNT2, 24 h treatment, 5–100 μg/mL) was > 100 µg/mL. The viability at 24 h, 5 μg/mL ([3]; 5 μg/mL) was 93.19 ± 0.93%, the viability at 24 h, 10 μg/mL ([3]; 10 μg/mL) was 83.1 ± 1.96% and the viability at 24 h, 20 μg/mL ([3]; 20 μg/mL) was 70.4 ± 1.69%. The viability at 24 h, 30 μg/mL ([3]; 30 μg/mL) was 57.2 ± 2.2%, the viability at 24 h, 40 μg/mL ([3]; 40 μg/mL) was 41.3 ± 1.91% and the viability at 24 h, 50 μg/mL ([3]; 50 μg/mL) was 27.2 ± 2.28%. The viability at 24 h, 100 μg/mL ([3]; 100 μg/mL) was 9.87 ± 1.59%, the “IC50 DU145” value ([4]; 5–100 μg/mL) was 35.83 µg/mL and the IC50 ([4]; 5–100 μg/mL) was 35.8 µg/mL. For the same molecule, the IC50 ([4]; value in brackets, footnote d) was 50 µM, the “IC50 PC3” value ([5]; 5–100 μg/mL) was 41.64 µg/mL and the IC50 ([5]; 5–100 μg/mL) was 41.6 µg/mL. It also gave an IC50 ([5]; value in brackets, footnote d) of 58.1 µM, a viability at 24 h, 100 μg/mL ([6]; HaCaT immortalized keratinocytes, 100 μg/mL) of 56.8 ± 2.2% and a viability at 24 h, 5 μg/mL ([6]; HaCaT keratinocytes, 5 μg/mL) of 96.52 ± 0.8%. For the same molecule, the viability at 24 h, 10 μg/mL ([6]; HaCaT keratinocytes, 10 μg/mL) was 94.9 ± 1%, the viability at 24 h, 20 μg/mL ([6]; HaCaT keratinocytes, 20 μg/mL) was 88.37 ± 0.47% and the viability at 24 h, 30 μg/mL ([6]; HaCaT keratinocytes, 30 μg/mL) was 81.2 ± 1.77%. For the same molecule, the viability at 24 h, 40 μg/mL ([6]; HaCaT keratinocytes, 40 μg/mL) was 74 ± 1.72%, the viability at 24 h, 50 μg/mL ([6]; HaCaT keratinocytes, 50 μg/mL) was 65.7 ± 1.22% and the IC50 [7] was > 100 µg/mL. The viability at 24 h, 5 μg/mL ([8]; 5 μg/mL) was 97.23 ± 0.57%, the viability at 24 h, 10 μg/mL ([8]; 10 μg/mL) was 96.44 ± 0.92% and the viability at 24 h, 20 μg/mL ([8]; 20 μg/mL) was 92.8 ± 1.11%. The viability at 24 h, 30 μg/mL ([8]; 30 μg/mL) was 87.2 ± 2.17%, the viability at 24 h, 40 μg/mL ([8]; 40 μg/mL) was 79.8 ± 2.02% and the viability at 24 h, 50 μg/mL ([8]; 50 μg/mL) was 70.2 ± 1.39%. The viability at 24 h, 100 μg/mL ([8]; 100 μg/mL) was 62.6 ± 2.03%, the IC50 [9] was > 100 µg/mL and the viability at 24 h, 5 μg/mL ([10]; 5 μg/mL) was 96.2 ± 1.12%. The viability at 24 h, 10 μg/mL ([10]; 10 μg/mL) was 93.82 ± 0.73%, the viability at 24 h, 20 μg/mL ([10]; 20 μg/mL) was 87.1 ± 2.09% and the viability at 24 h, 30 μg/mL ([10]; 30 μg/mL) was 78.9 ± 2.08%. It also gave a viability at 24 h, 40 μg/mL ([10]; 40 μg/mL) of 68.4 ± 2.17%, a viability at 24 h, 50 μg/mL ([10]; 50 μg/mL) of 59.5 ± 1.4% and a viability at 24 h, 100 μg/mL ([10]; 100 μg/mL) of 46.6 ± 2.09%. The IC50 [11] was > 50 µg/mL, the viability at 24 h, 5 μg/mL ([12]; 5 μg/mL) was 97.04 ± 0.42% and the viability at 24 h, 10 μg/mL ([12]; 10 μg/mL) was 95.49 ± 0.82%. The viability at 24 h, 20 μg/mL ([12]; 20 μg/mL) was 90.9 ± 1.37%, the viability at 24 h, 30 μg/mL ([12]; 30 μg/mL) was 81.5 ± 1.89% and the viability at 24 h, 40 μg/mL ([12]; 40 μg/mL) was 72.5 ± 1.94%. The viability at 24 h, 50 μg/mL ([12]; 50 μg/mL) was 64.8 ± 1.69%, the viability at 24 h, 100 μg/mL ([12]; 100 μg/mL) was 55.2 ± 1.73% and the IC50 [13] was > 100 µg/mL.
